Read-outs that look alike come from different tables or passages of the source.
What was measured:
HepG2 = test: In vitro cytotoxicity, IC50 by MTT method, HepG2; format: cell-based, human
How it was run: (§1)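 MTT viability, 48 h exposure: cells 10^5/ml in RPMI1640 + 10% FBS, 37 °C/5% CO2; MTT 4 h, DMSO solubilisation, A490.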

PLA-801 = test: In vitro cytotoxicity, IC50 by MTT method, PLA-801; format: cell-based
How it was run: as §1

Bel-7402 = test: In vitro cytotoxicity, IC50 by MTT method, Bel-7402; format: cell-based
How it was run: as §1

BGC-823 = test: In vitro cytotoxicity, IC50 by MTT method, BGC-823; format: cell-based
How it was run: as §1

Hela = test: In vitro cytotoxicity, IC50 by MTT method, Hela; format: cell-based
How it was run: as §1

Lovo = test: In vitro cytotoxicity, IC50 by MTT method, Lovo; format: cell-based
How it was run: as §1

NIH3T3 = test: In vitro cytotoxicity, IC50 by MTT method, NIH3T3; format: cell-based
How it was run: as §1

CT-DNA [1] = test: DNA thermal denaturation, determination of ΔTm; format: binding; settings: 20 uM compound, Tm of CT-DNA alone 61° C.
Experimental: Experiments were carried out in PE buffer (1 mM Na2HPO4, 0.1 mM EDTA, pH 7.6) in a thermostatically controlled cell hold, and the quartz cuvette (1 cm path length) was heated by circulating water at a heating rate of 0.5° C./min from 25 to 95° C. Amsacrine and Doxorubicin Hydrochloride were used as standards. In all cases, the concentration of CT-DNA was 15 ug/ml. The ‘melting’ temperature Tm was taken as the mid-point of the hyperchromic transition.
ΔTm=Tm^drug-DNA complex−Tm^DNA alone
The ΔTm of each compound was calculated, Experiments were repeated three times, and an average value was calculated.

CT-DNA [2] = test: UV absorption spectrum method with CT-DNA; format: binding; settings: CT-DNA 40 ug/ml, compound 20 uM, 37° C. for 2 h, OD at 260 nm
Experimental: Compounds to be tested (20 uM) were added into the PE buffer solution, and its scan curve was identified by the spectrograph at a wavelength of from 200 to 400 nm. CT-DNA (40 ug/ml) and compounds to be tested (20 uM) were added into the PE buffer solution. The mixture was cultured at 37° C. for 2 h, and its scan curve was identified by the UV spectrograph at a wavelength of from 200 to 400 nm. […] After that, the OD value at 260 nm of the scan curve of the medicaments tested and that of the CT-DNA mixture OD value at 260 nm of the scan curve were calculated and compared to determine the influences of the medicaments tested on the UV absorption spectrum of the DNA molecules.

[3] = Homo sapiens, HepG2 cell strain, read-out: IC50 HepG2
[4] = PLA-801 cell strain, read-out: IC50 PLA-801
[5] = Homo sapiens, Bel-7402, Bel7402 cell strain, read-out: IC50 Bel7402
[6] = Homo sapiens, BGC-823, BGC823 cell strain, read-out: IC50 BGC823
[7] = Homo sapiens, Hela cell strain, read-out: IC50 Hela
[8] = Homo sapiens, Lovo cell strain, read-out: IC50 Lovo
[9] = Mus musculus, NIH3T3 cell strain, read-out: IC50 NIH3T3
[10] = CT-DNA 15 ug/ml, PE buffer pH 7.6

| Compound | ΔTm (CT-DNA [1]; CT-DNA thermal denaturation) | IC50 (HepG2; [3]) | IC50 (PLA-801; [4]) | IC50 (Bel-7402; [5]) | IC50 (BGC-823; [6]) | IC50 (Hela; [7]) | IC50 (Lovo; [8]) | IC50 (NIH3T3; [9]) | melting point | also measured |
| --- | --- | --- | --- | --- | --- | --- | --- | --- | --- | --- |
| COc1ccc2c3ccnc(C)c3n(CCO)c2c1 [Compound 5, 9-hydroxyethyl-7-methoxy-1-methyl-β-carboline] | 5.9 °C | – | – | – | – | – | – | – | – | IC50 (HepG2; Homo sapiens, HepG2, MTT, read-out: IC50): 310 µM; IC50 (PLA-801; PLA-801, MTT, read-out: IC50): 80 µM; IC50 (Bel-7402; Homo sapiens, Bel-7402, BeI7402, MTT, read-out: IC50): 240 µM; IC50 (BGC-823; Homo sapiens, BGC-823, BGC823, MTT, read-out: IC50): 200 µM; IC50 (Hela; Homo sapiens, Hela, MTT, read-out: IC50): 30 µM; IC50 (Lovo; Homo sapiens, Lovo, MTT, read-out: IC50): 30 µM; IC50 (NIH3T3; Mus musculus, NIH3T3, MTT, read-out: IC50): 80 µM |
| COc1ccc2c3ccnc(C)c3n(Cc3c(F)c(F)c(F)c(F)c3F)c2c1 [Compound 7, 9-(2′,3′,4′,5′,6′-pentafluoro)benzyl-7-methoxy-1-methyl-β-carboline] | 7.5 °C | – | – | – | – | – | – | – | – | IC50 (HepG2; HepG2, MTT, read-out: IC50): 50 µM; IC50 (PLA-801; PLA-801, MTT, read-out: IC50): 420 µM; IC50 (Bel-7402; BeI7402, MTT, read-out: IC50): 40 µM; IC50 (BGC-823; BGC823, MTT, read-out: IC50): 20 µM; IC50 (Hela; Hela, MTT, read-out: IC50): 40 µM; IC50 (Lovo; Lovo, MTT, read-out: IC50): 40 µM; IC50 (NIH3T3; NIH3T3, MTT, read-out: IC50): 50 µM |
| CCCCOC(=O)c1cc2c3ccccc3n(CC)c2cn1 [Compound 39, butyl 9-ethyl-β-carboline-3-carboxylate] | 1.6 °C | 70 µM | 110 µM | 70 µM | 80 µM | 70 µM | 80 µM | 80 µM | 86 to 88 °C | – |
| CC(=O)COc1cc2c3ccccc3n(Cc3ccccc3)c2cn1 [Compound 43, 9-benzyl-3-acetylmethoxy-β-carboline] | – | 300 µM | 250 µM | 130 µM | > 3000 µM | 500 µM | > 3000 µM | > 3000 µM | 141 to 142 °C | Influence on the UV absorption of DNA (CT-DNA [2]): increase the UV absorption of DNA |
| CCCc1nc(C(=O)OCC)cc2c3ccccc3n(Cc3ccccc3)c12 [Compound 70, ethyl 9-benzyl-1-propyl-β-carboline-3-carboxylate] | – | 790 µM | 160 µM | 1010 µM | 1010 µM | 810 µM | 1170 µM | 1570 µM | 158 to 159 °C | – |
| CCCc1nc(C(=O)OCC)cc2c3ccccc3n(CCCc3ccccc3)c12 [Compound 71, ethyl 9-phenylpropyl-1-propyl-β-carboline-3-carboxylate] | – | 120 µM | 260 µM | 910 µM | 1320 µM | 60 µM | 60 µM | 190 µM | 92 to 93 °C | – |
| CCCc1nc(C(=O)O)cc2c3ccccc3n(C)c12 [Compound 72, 9-methyl-1-propyl-β-carboline-3-carboxylic acid] | – | 1170 µM | 1400 µM | > 3000 µM | 540 µM | 960 µM | 210 µM | 570 µM | 181 to 183 °C | – |
| CCCc1nc(C(=O)O)cc2c3ccccc3n(CC)c12 [Compound 73, 1-propyl-9-ethyl-β-carboline-3-carboxylic acid] | – | 540 µM | 710 µM | 570 µM | 390 µM | 420 µM | 260 µM | 390 µM | 189 to 191 °C | – |
| COC(=O)c1cc2c3ccccc3n(C)c2c(-c2ccccc2)n1 [Compound 76, methyl 1-phenyl-9-methyl-β-carboline-3-carboxylate] | – | > 3000 µM | > 3000 µM | 620 µM | > 3000 µM | > 3000 µM | > 3000 µM | > 3000 µM | 205 to 207 °C | – |
| CCn1c2ccccc2c2cc(C(=O)OC)nc(-c3ccccc3)c21 [Compound 77, methyl 1-phenyl-9-ethyl-β-carboline-3-carboxylate] | – | > 3000 µM | > 3000 µM | 380 µM | > 3000 µM | 2660 µM | 70 µM | 140 µM | 169 to 170 °C | – |
| c1ccc2c(c1)[nH]c1cnccc12 [Compound 80, β-carboline] | 3.1 °C | – | – | – | – | – | – | – | – | IC50 (HepG2; Homo sapiens, HepG2, read-out: IC50 HepG2): 230 µM; IC50 (PLA-801; read-out: IC50 PLA-801): 20 µM; IC50 (Bel-7402; Homo sapiens, Bel-7402, read-out: IC50 Bel7402): 380 µM; IC50 (BGC-823; Homo sapiens, BGC-823, read-out: IC50 BGC823): 270 µM; IC50 (Hela; Homo sapiens, HeLa, read-out: IC50 Hela): 350 µM; IC50 (Lovo; Homo sapiens, LoVo, read-out: IC50 Lovo): 40 µM; IC50 (NIH3T3; Mus musculus, NIH3T3, read-out: IC50 NIH3T3): 20 µM |
| Cn1c2ccccc2c2ccncc21 [Compound 81, 9-methyl-β-carboline] | 3.3 °C | 100 µM | 220 µM | 300 µM | 200 µM | 330 µM | 220 µM | 120 µM | – | – |
| CCn1c2ccccc2c2ccncc21 [Compound 82, 9-ethyl-β-carboline] | 4.2 °C | 170 µM | 130 µM | 310 µM | 170 µM | 230 µM | 160 µM | 100 µM | – | Influence on the UV absorption of DNA (CT-DNA [2]): reduce the UV absorption of DNA |
| COc1cccc2c1C(=O)c1c(O)c3c(c(O)c1C2=O)C[C@@](O)(C(=O)CO)C[C@@H]3O[C@H]1C[C@H](N)[C@H](O)[C@H](C)O1 [adriamycin, reference compound] | 10.8 °C | – | – | – | – | – | – | – | – | ΔTm (CT-DNA [1]; [10]): 10.8 °C; Influence on the UV absorption of DNA (CT-DNA [2]): reduce the UV absorption of DNA |
| CC[C@@]1(O)C(=O)OCc2c1cc1n(c2=O)Cc2cc3ccccc3nc2-1 [camptothecin, reference compound] | −2.5 °C | – | – | – | – | – | – | – | – | ΔTm (CT-DNA [1]; [10]): −2.5 °C; Influence on the UV absorption of DNA (CT-DNA [2]): increase the UV absorption of DNA |

— patent US20090227619A1, “Harmine derivatives, intermediates used in their preparations, preparation processes and use therefo” (priority 2003, published 2009)
